Test results from US11730730B2, “Cell-based screening and compounds that modulate GalNAc-transferases” (Carnegie Mellon University, priority 2018, dated 2023).
Read-outs that look alike come from different tables or passages of the source.

What was measured:
[1] = target: ppGalNAc-T2 (Homo sapiens, UniProt Q10471); details: HEK cells expressing T2 sensor, 6 h, 0-50 μM
Protocol: (§1) Primary screen. HEK cells stably expressing the T2 sensor (containing ANGPTL3 linker sequence with T225G modification) or the T3 sensor (containing FGF23-based linker) were cultured in MEM (Corning, N.Y., Cat #10-010-CV) with 10% fetal bovine serum (FBS, Atlanta Biologicals, Flowery Branch, Ga., Cat #5111150) and 100 IU/ml penicillin-streptomycin (Sigma-Aldrich, Cat #P4333) at 37° C., 5% CO2. Positive controls were cell lines expressing matched sensors with the glycosylation site mutated (Δglycan), specifically T225G/T226G and T178G for the T2 and T3 sensors, respectively. Cells (50,000/well) were seeded in flat bottom 96-well-plates (Corning, N.Y., Cat #3997) and grown for 24 h. Compounds (the diversity set from ChemBridge Corporation (Chicago, Ill.) and the approved oncology drugs set V and the diversity set II from the National Cancer Institute Developmental Therapeutics Program) were then added to achieve a 10 μM final concentration. […] The plates were then transferred to an Accuri™ C6 flow cytometer (BD Biosciences) where GFP and MG fluorescence was measured using 488 nm and 640 nm for 10,000 cells per well. […]
(§2) Titration assays. […] After 5 min at 37° C., fluorescence measurements (20,000 cells/well) were carried out as described above. […]

[2] = target: ppGalNAc-T3 (Homo sapiens, UniProt Q14435); details: read-out: apparent IC50 of T3 sensor activation; HEK cells expressing T3 sensor, 6 h, 0-50 μM
Protocol: as §1, §2

[3] = target: purified ppGalNAc-T2 (Homo sapiens, UniProt Q10471); details: purified enzyme, in vitro glycosylation
Protocol: (§3) A second stage reaction (UDP-GLO™) then converted the accumulated UDP product to ATP and then, via luciferase, to light.
(§4) Secondary screen. Glycosylation assays using recombinant ppGalNAc-T2 and ppGalNAc-T3 were carried out using the UDP-GLO™ Glycosyltransferase assay kit (Promega, Madison, Wis., Cat #V6962), according to the manufacturer's recommendation. The reaction (25 μl) included 2.5 ng/μl purified enzyme, 25 μM UDP-GalNAc (Sigma-Aldrich, Cat #U5252), 12.5 μM EA2 peptide (AnaSpec, Mucin 10, AA153-165, […], Cat #AS-63841), 25 mM Tris-HCl (pH7.5) (Fisher Scientific, Cat #77-86-1), 5 mM MnCl2 (Fisher Scientific, Cat #M87-500), 2.5 mM CaCl2) (Fisher Scientific, Cat #C70-500) and 50 μM compound. The negative control was vehicle only (same reaction mixture with a matched percentage of DMSO instead of compound), whereas background was from the reaction carried out without enzyme and DMSO instead of compound. All reactions were incubated at 37° C. in a water bath for 30 min and then cooled to room temperature. Aliquots (5 μl) were then added to 384-well plate (Thermo Scientific, Waltham, Mass., Cat #164610) to which 5 μl of UDP Detection Reagent was also added. Duplicate measures were made for all reactions. After 1 h at room temperature the luminescent signals were determined using a Tecan Infinite M1000 (Tecan Group Ltd., Männedorf, Switzerland) with integration time set to 1000 msec. The background-subtracted average for each compound was expressed as a percentage of the negative control (taken as 100%). Compounds with ≥50% effect were considered direct modulators.
(§5) Titration assays. For the sensor assay, about 200,000 cells expressing either sensor were seeded into Greiner Bio-One 24-well plates (Sigma-Aldrich, Cat #662160). After 24 h, the cells were incubated for another 6 h in the presence of 0-50 μM compound. To release the cells the medium was replaced with 200 μl 5 mM EDTA/PBS containing 110 nM MG dye. After 5 min at 37° C., fluorescence measurements (20,000 cells/well) were carried out as described above. For the biochemical assay, the assay conditions were identical except for variations in the compound or substrate concentrations as indicated in the figure legends. Data analysis was completed using Prism (Graph Pad Prism Inc., SCR_002798).

[4] = target: purified ppGalNAc-T3 (Homo sapiens, UniProt Q14435); details: for Vmax: percent of control without inhibitor
Protocol: as §3, §4, §5

[5] = target: purified ppGalNAc-T6 (Homo sapiens, UniProt Q8NCL4); details: purified enzyme, in vitro glycosylation
Protocol: as §4, with “Aliquots (5 μl) were then added to 384-well plate (Thermo Scientific, Waltham, Mass., Cat #164610) to which 5 μl of UDP Detection Reagent was also added. Duplicate measures were made for all reactions.” left out, “Compounds with ≥50% effect were considered direct modulators.” left out
as §2

[6] = target: purified lumenal domain of ppGalNAc-T3 (Homo sapiens, UniProt Q14435)
Source text: Tryptophan fluorescence quenching assay. […] The value at the peak of emission at 324 nm was used for the binding curve analysis by Prism.

[7] = tested on: HeLa cells; details: 24 h treatment, 10 or 20 μM
Protocol: Lectin staining. […] After staining, the cells were washed twice, lysed with 0.2% Triton X-100 (Fisher Scientific, Cat #BP151-100) for 15 min at 4° C., centrifuged at 14,000×g for 15 min at 4° C., and the supernatants were read in a Greiner Bio-One 96-well glass-bottom plate using a Tecan Infinite M1000 with excitation at 495 nm and emission from 510-550 nm. Three independent trials were carried out and the peak value (520 nm) was used for quantification.

[8] = tested on: MCF7 cells; details: MCF7, 5 μM T3Inh-1, 24 h, Matrigel-coated filters
Protocol: (§6) Cell invasion assay. Breast cancer MDA-MB231 cells were grown in DMEM medium (Corning, N.Y., Cat #10-013-CV) with 10% FBS and 100 IU/ml penicillin-streptomycin at 37° C. and 5% CO2 and then plated at a density of 1.32×104 in 0.3 ml of DMEM medium without FBS into the upper chamber of a BIOBOAT™ insert fitted with a 8.0 μm PET membrane (Corning, N.Y., Cat #354578). For migration assays, the filter was uncoated. […] Medium containing 10% FBS (0.6 ml) was placed into the lower chamber as a chemo attractant. The compound (final concentration of 5 μM) or a matching amount of DMSO was added to both chambers. After 24 h or 48 h the cells were fixed with −20° C. methanol for 15 min and then stained with Trypan blue for 5 min. Cells on the upper surface were removed using cotton swabs. Cells present on the underside of the membrane were photographed using an EVOS FL Cell Imaging System (Invitrogen, CA) and the images were thresholded for presentation and counting using Image J (National Institutes of Health, Bethesda, Md., SCR_003070). The assays involving MCF7 cells were identical except that they were performed 24 h post transfection.

[9] = tested on: MDA-MB231 cells; details: 24 or 48 h
Protocol: as §6

[10] = tested on: MDA-MB231 cells; details: MDA-MB231, 5 μM T3Inh-1, 24 or 48 h
Protocol: Proliferation assay. […] After 24, 48 or 72 h, the cells were released using trypsin and counted twice using a hemocytometer for 3 independent trials.

[11] = tested on: ANGPTL3; details: media of HEK cells transfected with Myc-ANGPTL3, 6 h
Protocol: (§7) Immunoblotting. The FLAG-tagged FGF23, Myc-tagged ANGPTL3 with the T225G modification, and untagged ppGalNAc-T3 (cloned into PCDNA 3.0 using BamH1 sites) were transfected into HEK cells using the JetPEI transfection reagent (VWR International, Radnor, Pa., Cat #101-40N) according to the manufacturer's instructions. After 24 h, the medium was replaced with serum-free MEM containing the compound for 6 h. The medium and cells were then collected and, after trichloroacetic acid precipitation of the medium, analyzed by immunoblot using anti-FLAG antibody at 1:1000 or anti-Myc antibody at 1:2000 and then the peroxidase-coupled secondary antibodies. Emission was captured and quantified using a CHEMIDOC™ Touch Imaging System with Image Lab Software (BioRad, SCR_014210). For ppGalNAc-T3 determinations in different cell lines, cells were collected and lysed with 100 μl buffer (10 mM Tris-HCl (pH8.0), 1 mM EDTA (ACROS ORGANICS, Cat #446085000), 1% Triton X-100, 0.1% sodium deoxycholate (Fisher Scientific, Cat #BP349-100), 0.1% SDS (Fisher Scientific, Cat #BP166-500), 140 mM NaCl (Fisher Scientific, Cat #5271-3), 1 mM PMSF (Sigma-Aldrich, Cat #PMSF-RO). Then 15 μl of each lysate was analyzed by immunoblotting using the purchased anti-ppGalNAc-T3 and anti-α-tubulin antibodies.

[12] = tested on: FGF23
Protocol: as §7

[13] = mice, 25 and 50 mg/kg intraperitoneal, 1 or 2 injections
Protocol: (§8) Animal analysis. Wild-type C57BL/6 six to eight week old mice were purchased from Charles River Laboratories International Inc. (Wilmington, Mass.). Protocols, handling, and care of the mice conformed to protocols approved by the Institutional Animal Care and Use Committee of Carnegie Mellon University (CMU IACUC protocol AS16-005). The compound was dissolved in DMSO at 25 and 50 mg/ml then further diluted with PEG400 (Hampton Research, CA, USA, HR2-603) to create 5 and 10 mg/ml stocks for injection. Control (vehicle only: 20% DMSO, 80% PEG400) and experimental (25 or 50 mg/kg compound) animals received either single or double (separated by 24 h) intraperitoneal injections and, 24 h after the last injection, a cardiac blood draw was carried out. The cleaved/intact FGF23 ratio was determined using ELISA kits from Immunotopics (Carlsbad, Va., USA, Cat #60-6800, Cat #60-6300) with cleaved equaling total minus intact.

[14] = tested on: FGF23; details: mice; for ratio of cleaved/intact FGF23 in the blood: 1 or 2 injections, blood 24 h after last
Protocol: as §8

[15] = tested on: HEK cells
[16] = tested on: HeLa cells; details: 6 h, 10 μM

Compound: O=C(Nc1ccc(Nc2ccncc2)cc1)c1ccc(Nc2ccnc3ccccc23)cc1 [Compound T3Inh-1]
- activity towards the T2 sensor [1]: little or no activity
- IC50 [2]: 12 µM
- inhibition of ppGalNAc-T2 [3]: undetectable
- inhibition of ppGalNAc-T3 in the secondary screen ([4]; 50 μM compound, versus ppGalNAc-T2): strong and selective inhibitor
- IC50 ([4]; read-out: IC50 of inhibition of ppGalNAc-T3, purified enzyme, in vitro glycosylation): 7 µM
- Ki ([4]; substrate varied: Peptide (EA2)): 9.9 µM
- Vmax ([4]; substrate varied: Peptide (EA2), 7.5 μM T3Inh-1): 82%
- Vmax ([4]; substrate varied: Peptide (EA2), 15 μM T3Inh-1): 36%
- Ki ([4]; substrate varied: UDP-GalNAc): 2.9 µM
- Vmax ([4]; substrate varied: UDP-GalNAc, 7.5 μM T3Inh-1): 71%
- Vmax ([4]; substrate varied: UDP-GalNAc, 15 μM T3Inh-1): 56%
- activity against ppGalNAc-T6 [5]: lacked activity
- Kd ([6]; read-out: apparent Kd of direct binding, quenching at 324 nm): 17 µM
- affinity of binding to GalNAc-T3 ([6]; stated in words): low micromolar
- staining intensity by lectin Concanavalin A (ConA) [7]: did not affect
- staining intensity by lectin Sambucus Nigra (SNA) [7]: did not affect
- staining intensity by lectin Vicia Villosa (VVA) [7]: did not affect
- staining intensity by lectin Wheat germ agglutinin (WGA) [7]: did not affect
- increase of invasion caused by ppGalNAc-T3 transfection [8]: strongly blocked
- inhibition of invasion ([9]; 5 μM T3Inh-1, Matrigel-coated filters): 98%
- inhibition of migration ([9]; 5 μM T3Inh-1, uncoated filters): > 80%
- effect on cell proliferation [10]: no discernable effect
- secreted intact ANGPTL3 [11]: remained high at all concentrations
- intact and cleaved FGF23 in cell lysates ([12]; cell extracts, 6 h, also with 100 μM chloroquine): no change
- half-max of increase in ratio of cleaved/intact FGF23 ([12]; media of HEK cells co-expressing FGF23 and ppGalNAc-T3, 6 h): 14 µM
- secreted intact FGF23 ([12]; media, 6 h, increasing concentrations): dose-dependent loss
- effects on animal health [13]: no apparent ill effects
- ratio of cleaved/intact FGF23 in the blood ([14]; 25 mg/kg intraperitoneal): robust and statistically significant increase
- ratio of cleaved/intact FGF23 in the blood ([14]; 50 mg/kg intraperitoneal): robust and statistically significant increase
- increase of level of proteolyzed C-terminal FGF23 fragment ([14]; intraperitoneal injection): 8 fold
- HEK cell proliferation ([15]; 0-50 μM, 24, 48, 72 h, cell counting): did not affect
- toxicity ([15]; HEK cells, continuous exposure 24, 48, 72 h): no toxicity
- localization or expression level of ppGalNAc-T3, ppGalNAc-T2 or any other Golgi marker tested [16]: no change
